# Experimental data taken from US12583858B2 (Genentech, Inc., priority 2015, dated 2026).
# Molecular target: T1, TDO2 (Homo sapiens, UniProt P48775)
# T1 construct: decreased levels of NFK in SW48 cells (high TDO expressing cells)
# Test: TDO2 cell assay (NFK GreenScreen, SW48 cells)
# Format: cell-based
# Settings: SW48 cells (high TDO expressing), 200 uM tryptophan, 24 hours; Table 3; read-out: TDO2 Cell Fluor EC50
# T1 sequence (P48775 whole entry): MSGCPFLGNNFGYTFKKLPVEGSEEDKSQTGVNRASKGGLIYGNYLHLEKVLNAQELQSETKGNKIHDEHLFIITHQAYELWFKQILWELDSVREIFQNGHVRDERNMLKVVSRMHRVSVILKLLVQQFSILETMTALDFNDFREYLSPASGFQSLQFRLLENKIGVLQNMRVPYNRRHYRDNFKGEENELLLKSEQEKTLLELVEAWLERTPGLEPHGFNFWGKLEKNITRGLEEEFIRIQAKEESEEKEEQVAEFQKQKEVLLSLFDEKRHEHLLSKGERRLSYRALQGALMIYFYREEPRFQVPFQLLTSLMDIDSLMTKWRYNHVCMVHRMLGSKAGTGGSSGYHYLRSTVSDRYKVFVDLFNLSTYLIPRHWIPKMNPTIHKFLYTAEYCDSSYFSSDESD
row,SMILES,EC50 [µM]
1,"NS(=O)(=O)c1ccc2c(c1)C(O)C(C1c3ccccc3-c3cncn31)CC2 (single isomer, unassigned) [Example 105g]",9.2
2,"NS(=O)(=O)c1ccc2c(c1)C(O)C(C1c3ccccc3-c3cncn31)CC2 (single isomer, unassigned) [Example 105h]",0.51
3,"O[C@@H]1[C@@H]([C@@H]2c3ccccc3-c3cncn32)CCCC1(F)F (single isomer, unassigned) [Example 106a]",> 25
4,"O[C@H]1[C@H]([C@H]2c3ccccc3-c3cncn32)CCCC1(F)F (single isomer, unassigned) [Example 106b]",0.17
5,"O[C@H]1[C@H]([C@@H]2c3ccccc3-c3cncn32)CCCC1(F)F (single isomer, unassigned) [Example 106c]",8.1
6,"O[C@@H]1[C@@H]([C@H]2c3ccccc3-c3cncn32)CCCC1(F)F (single isomer, unassigned) [Example 106d]",0.93
7,"N#Cc1cnc2c(c1)CCC(C1c3ccccc3-c3cncn31)C2O (single isomer, unassigned) [Example 107a]",17
8,"N#Cc1cnc2c(c1)CCC(C1c3ccccc3-c3cncn31)C2O (single isomer, unassigned) [Example 107b]",> 25
9,"N#Cc1cnc2c(c1)CCC(C1c3ccccc3-c3cncn31)C2O (single isomer, unassigned) [Example 107c]",21
10,"N#Cc1cnc2c(c1)CCC(C1c3ccccc3-c3cncn31)C2O (single isomer, unassigned) [Example 107d]",2.4
11,"N#Cc1cnc2c(c1)CCC(C1c3ccccc3-c3cncn31)C2O (single isomer, unassigned) [Example 107e]",23
12,"N#Cc1cnc2c(c1)CCC(C1c3ccccc3-c3cncn31)C2O (single isomer, unassigned) [Example 107f]",0.42
13,"N#Cc1cnc2c(c1)CCC(C1c3ccccc3-c3cncn31)C2O (single isomer, unassigned) [Example 107g]",0.87
14,"N#Cc1cnc2c(c1)CC[C@H]([C@@H]1c3ccccc3-c3cncn31)[C@H]2O (single isomer, unassigned) [Example 107h]",0.16
15,"CCS(=O)(=O)N1CC(O)(CC2c3ccccc3-c3cncn32)C1 (single isomer, unassigned) [Example 108a]",2.8
16,"CCS(=O)(=O)N1CC(O)(CC2c3ccccc3-c3cncn32)C1 (single isomer, unassigned) [Example 108b]",> 25
17,"OC1C(C2c3ccc(F)cc3-c3cncn32)CC12CCOCC2 (single isomer, unassigned) [Example 109a]",0.62
18,"OC1C(C2c3ccc(F)cc3-c3cncn32)CC12CCOCC2 (single isomer, unassigned) [Example 109b]",3.9
19,"OC1C(C2c3ccc(F)cc3-c3cncn32)CC12CCOCC2 (single isomer, unassigned) [Example 109d]",3.7
20,"OC1C(C2c3ccc(F)cc3-c3cncn32)CC12CCOCC2 (single isomer, unassigned) [Example 109e]",9.5
21,"OC1C(C2c3ccc(F)cc3-c3cncn32)CC12CCOCC2 (single isomer, unassigned) [Example 109f]",> 25
22,"OC1C(C2c3ccc(F)cc3-c3cncn32)CC12CCOCC2 (single isomer, unassigned) [Example 109g]",0.15

row,SMILES,EC50 [µM]
1,"OC1C(C2c3ccc(F)cc3-c3cncn32)CC12CCOCC2 (single isomer, unassigned) [Example 109h]",> 25
2,"Cc1ccc2c(c1)C(C1COCC1O)n1cncc1-2 (single isomer, unassigned) [Example 110a]",0.52
3,"Cc1ccc2c(c1)C(C1COCC1O)n1cncc1-2 (single isomer, unassigned) [Example 110b]",> 25
4,"Cc1ccc2c(c1)C(C1COCC1O)n1cncc1-2 (single isomer, unassigned) [Example 110c]",3.9
5,"Cc1ccc2c(c1)C(C1COCC1O)n1cncc1-2 (single isomer, unassigned) [Example 110d]",> 25
6,"Nc1ncc2c(n1)CCC(C1c3ccccc3-c3cncn31)C2O (single isomer, unassigned) [Example 111a]",0.54
7,"Nc1ncc2c(n1)CCC(C1c3ccccc3-c3cncn31)C2O (single isomer, unassigned) [Example 111b]",0.12
8,"Nc1ncc2c(n1)CCC(C1c3ccccc3-c3cncn31)C2O (single isomer, unassigned) [Example 111c]",7.8
9,"Nc1ncc2c(n1)CCC(C1c3ccccc3-c3cncn31)C2O (single isomer, unassigned) [Example 111d]",> 25
10,"Nc1ncc2c(n1)CCC(C1c3ccccc3-c3cncn31)C2O (single isomer, unassigned) [Example 111e]",5.7
11,"Nc1ncc2c(n1)CCC(C1c3ccccc3-c3cncn31)C2O (single isomer, unassigned) [Example 111f]",> 25
12,"Nc1ncc2c(n1)CCC(C1c3ccccc3-c3cncn31)C2O (single isomer, unassigned) [Example 111g]",> 25
13,"OC1c2cnncc2CCC1C1c2ccccc2-c2cncn21 (single isomer, unassigned) [Example 112a]",> 25
14,"OC1c2cnncc2CCC1C1c2ccccc2-c2cncn21 (single isomer, unassigned) [Example 112c]",> 25
15,"OC1c2cnncc2CCC1C1c2ccccc2-c2cncn21 (single isomer, unassigned) [Example 112d]",5.6
16,"OC1c2cnncc2CCC1C1c2ccccc2-c2cncn21 (single isomer, unassigned) [Example 112e]",> 25
17,"OC1c2cnncc2CCC1C1c2ccccc2-c2cncn21 (single isomer, unassigned) [Example 112f]",3.8
18,"OC1c2cnncc2CCC1C1c2ccccc2-c2cncn21 (single isomer, unassigned) [Example 112g]",0.27
19,"OC1c2cnncc2CCC1C1c2ccccc2-c2cncn21 (single isomer, unassigned) [Example 112h]",> 25
20,"N#Cc1ccc2c(c1)C(O)C(C1c3ccccc3-c3cncn31)CC2 (single isomer, unassigned) [Example 113b]",5
21,"N#Cc1ccc2c(c1)C(O)C(C1c3ccccc3-c3cncn31)CC2 (single isomer, unassigned) [Example 113c]",0.06
22,"N#Cc1ccc2c(c1)C(O)C(C1c3ccccc3-c3cncn31)CC2 (single isomer, unassigned) [Example 113f]",0.17

row,SMILES,EC50 [µM]
1,"N#Cc1ccc2c(c1)C(O)C(C1c3ccccc3-c3cncn31)CC2 (single isomer, unassigned) [Example 113g]",3.3
2,"CCS(=O)(=O)N1CCC2(CC1)CC(C1c3ccccc3-c3cncn31)C2O (single isomer, unassigned) [Example 114a]",0.39
3,"CCS(=O)(=O)N1CCC2(CC1)CC(C1c3ccccc3-c3cncn31)C2O (single isomer, unassigned) [Example 114c]",15
4,"CCS(=O)(=O)N1CCC2(CC1)CC(C1c3ccccc3-c3cncn31)C2O (single isomer, unassigned) [Example 114d]",0.22
5,"CCS(=O)(=O)N1CCC2(CC1)CC(C1c3ccccc3-c3cncn31)C2O (single isomer, unassigned) [Example 114e]",1.2
6,"CCS(=O)(=O)N1CCC2(CC1)CC(C1c3ccccc3-c3cncn31)C2O (single isomer, unassigned) [Example 114f]",0.91
7,"OC1CCCCCC1C1c2ccccc2-c2cncn21 (single isomer, unassigned) [Example 115a, 2-(5H-imidazo[5,1-a]isoindol-5-yl)cycloheptan-1-ol]",14
8,"OC1CCCCCC1C1c2ccccc2-c2cncn21 (single isomer, unassigned) [Example 115b, 2-(5H-imidazo[5,1-a]isoindol-5-yl)cycloheptan-1-ol]",3.4
9,"OC1CCCCCC1C1c2ccccc2-c2cncn21 (single isomer, unassigned) [Example 115c, 2-(5H-imidazo[5,1-a]isoindol-5-yl)cycloheptan-1-ol]",0.05
10,"OC1CCCCCC1C1c2ccccc2-c2cncn21 (single isomer, unassigned) [Example 115d, 2-(5H-imidazo[5,1-a]isoindol-5-yl)cycloheptan-1-ol]",0.1
11,"CS(=O)(=O)N1CCC(O)(C2c3ccccc3-c3cncn32)C1 (single isomer, unassigned) [Example 116a]",> 25
12,"CS(=O)(=O)N1CCC(O)(C2c3ccccc3-c3cncn32)C1 (single isomer, unassigned) [Example 116b]",2.5
13,"CS(=O)(=O)N1CCC(O)(C2c3ccccc3-c3cncn32)C1 (single isomer, unassigned) [Example 116c]",> 25
14,"CS(=O)(=O)N1CCC(O)(C2c3ccccc3-c3cncn32)C1 (single isomer, unassigned) [Example 116d]",0.73
15,"CS(=O)(=O)N1CCC(O)C(C2c3ccc(F)cc3-c3cncn32)C1 (single isomer, unassigned) [Example 118a]",> 25
16,"CS(=O)(=O)N1CCC(O)C(C2c3ccc(F)cc3-c3cncn32)C1 (single isomer, unassigned) [Example 118b]",> 25
17,"CS(=O)(=O)N1CCC(O)C(C2c3ccc(F)cc3-c3cncn32)C1 (single isomer, unassigned) [Example 118c]",13
18,"CS(=O)(=O)N1CCC(O)C(C2c3ccc(F)cc3-c3cncn32)C1 (single isomer, unassigned) [Example 118d]",> 25
19,"CS(=O)(=O)N1CCC(C2c3ccc(F)cc3-c3cncn32)C(O)C1 (single isomer, unassigned) [Example 119a]",> 25
20,"CS(=O)(=O)N1CCC(C2c3ccc(F)cc3-c3cncn32)C(O)C1 (single isomer, unassigned) [Example 119b]",8.4
21,"CS(=O)(=O)N1CCC(C2c3ccc(F)cc3-c3cncn32)C(O)C1 (single isomer, unassigned) [Example 119c]",0.22
